Experimental data taken from patent US20140039044A1, “Hydroxylated Polymethoxyflavone Compositions” (WLLGEN, INC., priority 2006, published 2014).

Experiments:
Assay type in all cases: cell-based, human
AGS cells [1] = experiment: Cell survival assay (antiproliferative IC50); details: Homo sapiens; AGS cells; read-out: Antiproliferative IC50
Protocol: (§1) Human colon carcinoma COLO205 and HT-29 cell lines (American Type Culture Collection (ATTC), Manassas, Va.) and the leukemia cell line HL-60 were maintained at 37° C. in 5% CO2 air in RPMI 1640 medium supplemented with 10% heat-inactivated fetal bovine serum (Gibco BRL, Grand Island, N.Y.), 100 units/mL penicillin, 100 μg/mL streptomycin and 2 mM 1-glutamine. The human gastric carcinoma AGS cell line (CCRC 60102), obtained from the Food Industry Research and Development Institute (Hsinchu, Taiwan), was maintained as described above, except that DMEM/F 12 was used as the medium rather than the RPMI 1640 medium. The human breast carcinoma MCF-7 cell line MCF-7 (ATTC) was cultured in RPMI 1640 medium supplemented with 5% fetal calf serum at 37° C. in a humidified atmosphere of 5% CO2 in air. The mouse macrophage cell line RAW 264.7 was maintained in RPMI 1640 supplemented with 100 U/ml penicillin, 100 μg/ml streptomycin, and 10% heat-inactivated fetal calf serum.
(§2) Cancer cells (2×10^5) were plated in 12-well Petri dishes. The next day, the medium was changed and treated with different concentration of the test compounds or compositions for 24 h. Where individual compounds were to be tested, stock solutions of the compound was prepared to contain 200 μM of the individual hydroxylated or non-hydroxylated PMF in dimethylsulfoxide (DMSO). Control cells were treated with DMSO to a final concentration of 0.05% (v/v). Depending on the objective of the particular experiment, cells were treating with test compound or composition for 1, 3 or 6 days. At the end of incubation, cells were harvested for cell count using a hemocytometer and measuring the cellular total nucleic acid content with the CyQUANT Cell Proliferation Assay Kit (Molecular Probes).
(§3) 1 N PMF and 6 N PMF compositions containing hydroxylated PMFs, prepared as described in Section 8.3 above, 70% PMF OPE and 5,6,7,8,3′,4′-hexamethoxyflavone (nobiletin) were tested for antiproliferative activity and apoptosis-inducing activity in HL-60, AGS and COLO205 cells as described in Section 8.4 above. Antiproliferative and apoptosis-inducing activities were derived as IC50 values and AC50, values, respectively, where AC50 is the concentration required for 50% apoptosis.
(§4) The PMF compounds were assayed in vitro for cell growth inhibition and for their ability to induce apoptosis in various human cancer cells, including HL-60, AGS, COLO 205, and HT-29 cells, using methods described in Section 8.4 above. Antiproliferative (IC50) and apoptosis-inducing activity (AC50) of PMFs in the HL-60, AGS, COLO 205, and HT-29 cells are reported in Table 9, where *P<0.05, **P<0.01 and ***P<0.001 indicate statistically significant differences from the control group.

COLO205 cells [2] = experiment: Cell survival assay (antiproliferative IC50); details: Homo sapiens, COLO 205; COLO205 cells; read-out: Antiproliferative IC50
Protocol: as §1, §2, §3, §4

HT-29 cells [3] = experiment: Cell survival assay (antiproliferative IC50); details: Homo sapiens
Protocol: as §1, §2, §4

AGS cells [4] = experiment: Apoptotic ratio by propidium iodide flow cytometry (AC50); details: Homo sapiens; AGS cells; read-out: Apoptosis-inducing AC50
Protocol: (§5) The human cancer cells (2×10^5) were cultured in 60-mm Petri dishes and incubated for 24 h. After treated with test compounds for 24 h, the cells were then harvested, washed with PBS resuspended in 200 μL of PBS, and fixed in 800 μL of iced 100% ethanol at −20° C. After being left to stand overnight, the cell pellets were collected by centrifugation, resuspended in 1 mL of hypotonic buffer (0.5% Triton X-100 in PBS and 0.5 μg/mL RNase) and incubated at 37° C. for 30 min. Next, 1 mL of propidium iodide solution (50 μg/mL) was added, and the mixture was allowed to stand on ice for 30 min. Fluorescence emitted from the propidium iodide-DNA complex was quantitated after excitation of the fluorescent dye by FACScan cytometry (Becton Dickinson, San Jose, Calif.).
as §3, §4

COLO205 cells [5] = experiment: as above; details: Homo sapiens, COLO 205; COLO205 cells; read-out: Apoptosis-inducing AC50
Protocol: as §5, §3, §4

HL-60 cells [6] = experiment: as above; details: Homo sapiens; HL-60 cells; read-out: Apoptosis-inducing AC50
Protocol: as §5, §3, §4

HT-29 cells [7] = experiment: as above; details: Homo sapiens, read-out: Apoptosis-inducing AC50
Protocol: as §5, §4

HL-60 cells [8] = experiment: Cell cycle distribution by flow cytometry; details: 24 h; for Cell Cycle Distribution G0/G1 / Cell Cycle Distribution G2/M / Cell Cycle Distribution S: Table 10
Protocol: as §5
The effects of the hydrolyzed PMF-enriched compositions, nobiletin and 70% PMF OPE on cell cycle distribution were studied, following the procedures described in Section 8.4. Results for cell cycle distribution in HL-60 cells, COLO205 cells and AGS cells are provided in Table 5, Table 6 and Table 7, respectively. […] In HL-60 cells, G2/M arrest predominated in cells treated with 6N PMF concentrations ≧5 μM and with 1N PMF concentrations ≧25 μM.
(§6) Compounds A-K were evaluated in terms of their effects in arresting cell cycle progression by observing cell cycle phase distribution in cells treated with the compounds. Cells were treated with 5, 10, 25, 50, and 100 μM of one of compound A-K or DMSO (control) for 24 h and subjected to flow cytometric analysis after staining their DNA, as described above.

HT-29 cells [9] = experiment: Cell cycle distribution by flow cytometry; details: for Cell Cycle Distribution G0/G1 / Cell Cycle Distribution G2/M / Cell Cycle Distribution S: 24 h; for Cell cycle arrest, in words: 5-100 μM, 24 h exposure
Protocol: as §5, §6
Similar cell cycle phase distribution studies were performed in AGS, COLO205, and HT-29 cells in response to individual PMFs, with results reported in Tables 11, 12 and 13, respectively.

SMILES | IC50 (AGS cells [1]) [µM] | IC50 (COLO205 cells [2]) [µM] | IC50 (HT-29 cells [3]) [µM] | AC50 (AGS cells [4]) [µM] | AC50 (COLO205 cells [5]) [µM] | AC50 (HL-60 cells [6]) [µM] | AC50 (HT-29 cells [7]) [µM] | Cell Cycle Distribution G0/G1 (HL-60 cells [8]; 5 μM) | Cell Cycle Distribution G2/M (HL-60 cells [8]; 5 μM) | Cell Cycle Distribution S (HL-60 cells [8]; 5 μM) | Cell Cycle Distribution G0/G1 (HL-60 cells [8]; 10 μM) | Cell Cycle Distribution G2/M (HL-60 cells [8]; 10 μM) | Cell Cycle Distribution S (HL-60 cells [8]; 10 μM) | Cell Cycle Distribution G0/G1 (HL-60 cells [8]; 25 μM) | Cell Cycle Distribution G2/M (HL-60 cells [8]; 25 μM) | Cell Cycle Distribution S (HL-60 cells [8]; 25 μM) | Cell Cycle Distribution G0/G1 (HL-60 cells [8]; 50 μM) | Cell Cycle Distribution G2/M (HL-60 cells [8]; 50 μM) | Cell Cycle Distribution S (HL-60 cells [8]; 50 μM) | Cell Cycle Distribution G0/G1 (HL-60 cells [8]; 100 μM) | further results
COc1ccc(-c2oc3c(OC)c(OC)c(OC)c(O)c3c(=O)c2OC)cc1OC [Compound C, 5-hydroxy-3,6,7,8,3′,4′-hexamethoxyflavone] | 17 ± 0.21 | 67 ± 1.4 | 77.4 ± 1.82 | 18.9 ± 0.41 | > 100 | 63.65 ± 0.61 | > 100 | 70.99 ± 0.49 | 0.95 ± 0.35 | 28.07 ± 0.99 | 78.47 ± 0.64 | 19.89 ± 1.06 | 1.64 ± 0.42 | 40.12 ± 0.64 | 20.37 ± 0.57 | 39.51 ± 0.57 | 51.42 ± 1.13 | 11.64 ± 1.06 | 36.94 ± 0.85 | 50.23 ± 1.91 | Cell cycle arrest, in words (HL-60 cells [8]; 25 μM): decrease in G1 arrest was accompanied by an increase in G2/M phase cell population; Cell Cycle Distribution G2/M (HL-60 cells [8]; 100 μM): 18.74 ± 1.56; Cell Cycle Distribution S (HL-60 cells [8]; 100 μM): 31.03 ± 1.06; Cell cycle arrest, in words (HL-60 cells [8]; 25-100 μM): significant G1 arrest; Cell Cycle Distribution G0/G1 (HT-29 cells [9]; 5 μM): 65.24 ± 0.32; Cell Cycle Distribution G2/M (HT-29 cells [9]; 5 μM): 7.62 ± 0.11; Cell Cycle Distribution S (HT-29 cells [9]; 5 μM): 27.15 ± 0.21; Cell Cycle Distribution G0/G1 (HT-29 cells [9]; 10 μM): 69.14 ± 0.14; Cell Cycle Distribution G2/M (HT-29 cells [9]; 10 μM): 6.58 ± 0.18; Cell Cycle Distribution S (HT-29 cells [9]; 10 μM): 24.28 ± 0.32; Cell Cycle Distribution G0/G1 (HT-29 cells [9]; 25 μM): 80.09 ± 0.19; Cell Cycle Distribution G2/M (HT-29 cells [9]; 25 μM): 4.39 ± 0.37; Cell Cycle Distribution S (HT-29 cells [9]; 25 μM): 15.54 ± 0.19; Cell Cycle Distribution G0/G1 (HT-29 cells [9]; 50 μM): 69.85 ± 0.66; Cell Cycle Distribution G2/M (HT-29 cells [9]; 50 μM): 5.91 ± 0.49; Cell Cycle Distribution S (HT-29 cells [9]; 50 μM): 24.25 ± 1.15; Cell Cycle Distribution G0/G1 (HT-29 cells [9]; 100 μM): 77.48 ± 0.74; Cell Cycle Distribution G2/M (HT-29 cells [9]; 100 μM): 3.94 ± 1.32; Cell Cycle Distribution S (HT-29 cells [9]; 100 μM): 18.59 ± 0.58; Cell cycle arrest, in words (HT-29 cells [9]): significant accumulation of cells in G1 phase
COc1cc(-c2cc(=O)c3c(OC)c(OC)c(OC)c(OC)c3o2)ccc1O [Compound G, 4′-hydroxy-5,6,7,8,3′-pentamethoxyflavone] | 70.5 ± 9.97 | 83.7 ± 4.96 | 45.8 | > 100 | > 100 | 87.1 ± 7.83 | > 100 | 41.79 ± 0.80 | 4.80 ± 6.73 | 53.41 ± 5.93 | 43.26 ± 2.02 | 12.61 ± 0.11 | 44.15 ± 2.12 | 55.71 ± 0.15 | 8.39 ± 0.16 | 35.90 ± 0.01 | 52.35 ± 1.09 | 12.18 ± 3.83 | 35.48 ± 4.91 | 65.44 ± 5.42 | Cell Cycle Distribution G2/M (HL-60 cells [8]; 100 μM): 11.21 ± 8.27; Cell Cycle Distribution S (HL-60 cells [8]; 100 μM): 23.35 ± 13.67; Cell Cycle Distribution G0/G1 (HT-29 cells [9]; 5 μM): 56.92 ± 1.98; Cell Cycle Distribution G2/M (HT-29 cells [9]; 5 μM): 12.42 ± 0.44; Cell Cycle Distribution S (HT-29 cells [9]; 5 μM): 30.66 ± 2.43; Cell Cycle Distribution G0/G1 (HT-29 cells [9]; 10 μM): 58.01 ± 1.22; Cell Cycle Distribution G2/M (HT-29 cells [9]; 10 μM): 9.97 ± 2.10; Cell Cycle Distribution S (HT-29 cells [9]; 10 μM): 32.03 ± 0.88; Cell Cycle Distribution G0/G1 (HT-29 cells [9]; 25 μM): 74.38 ± 1.68; Cell Cycle Distribution G2/M (HT-29 cells [9]; 25 μM): 6.18 ± 0.06; Cell Cycle Distribution S (HT-29 cells [9]; 25 μM): 19.55 ± 1.59; Cell Cycle Distribution G0/G1 (HT-29 cells [9]; 50 μM): 84.63 ± 1.16; Cell Cycle Distribution G2/M (HT-29 cells [9]; 50 μM): 7.99 ± 0.01; Cell Cycle Distribution S (HT-29 cells [9]; 50 μM): 7.39 ± 1.16; Cell Cycle Distribution G0/G1 (HT-29 cells [9]; 100 μM): 75.28 ± 1.61; Cell Cycle Distribution G2/M (HT-29 cells [9]; 100 μM): 14.63 ± 0.21; Cell Cycle Distribution S (HT-29 cells [9]; 100 μM): 10.11 ± 1.82; Cell cycle arrest, in words (HT-29 cells [9]): significant accumulation of cells in G1 phase
